# Experimental data as given in patent US20230339981A1, “KRAS G12D MODULATING COMPOUNDS” (priority 2022, published 2023).
# Columns and labels:
# GDP-loaded KRAS G12D = GDP-loaded KRAS G12D (Homo sapiens (Human), UniProt P01116, G12D); assay: KRAS G12D (GDP) biochemical assay (TR-FRET probe displacement); format: binding; conditions: 2 hours
# Procedure, shortened: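 Compound pre-incubated 30 min with GDP-loaded KRAS G12D in 50 mM Hepes pH 7.4, 150 mM NaCl, 5 mM MgCl2, 0.005% Tween-20, then Eu-streptavidin and TR-FRET probe added. After 2 h at room temperature, TR-FRET ratio read; IC50 is 50% ratio decrease, sigmoidal fit.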
# GP2D (KRAS G12D) cells = assay: 2D cell viability assay (CellTiter-Glo); format: cell-based; conditions: GP2d, 96 h, 4 days
# Procedure, shortened: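 GP2D (KRAS G12D) cells, 1000/well in RPMI + 10% FBS, were plated onto compound (1:3 DMSO series) and grown 4 days at 37 °C, 5% CO2 in 2D. CellTiter-Glo luminescence was read; EC50 is the concentration giving 50% signal decrease, from sigmoidal fit.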
# AsPC-1 (KRAS G12D) cells = assay: 3D cell viability assay (spheroids, CellTiter-Glo 3D); format: cell-based; conditions: Homo sapiens, ASPC1, 96 h, AsPC-1 cells, 3D spheroids, 4 days
# Procedure, shortened: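 AsPC-1 cells (1000/well) in DMEM with 10% FBS formed spheroids over 3 days at 37 °C in ultra-low attachment plates, then were treated with 1:3 serial dilutions for 4 days. Viability read by CellTiter-Glo 3D luminescence; EC50 as concentration giving 50% signal decrease, sigmoidal fit.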
# Sequence of GDP-loaded KRAS G12D (P01116-2 other isoform, or with tags, fused parts or gaps G12D): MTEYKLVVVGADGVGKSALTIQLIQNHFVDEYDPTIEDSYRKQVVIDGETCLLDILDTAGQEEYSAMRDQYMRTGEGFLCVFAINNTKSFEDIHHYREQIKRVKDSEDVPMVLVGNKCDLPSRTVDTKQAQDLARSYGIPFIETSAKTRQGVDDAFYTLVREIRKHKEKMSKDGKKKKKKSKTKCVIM
SMILES,IC50 (GDP-loaded KRAS G12D),EC50 (GP2D (KRAS G12D) cells),EC50 (AsPC-1 (KRAS G12D) cells)
"C#Cc1c(F)ccc2cc(O)cc(-c3nc4c5c(nc(OC[C@@]67CCCN6C[C@H](F)C7)nc5c3F)N3C[C@H]5CC[C@H](N5)[C@H]3CCC4)c12 [Example 75, 5-ethynyl-6-fluoro-4-((6aR,7S,10R)-1-fluoro-13-(((2R,7aS)-2-fluorotetrahydro-1H-pyrrolizin-7a(5H)-yl)methoxy)-5,6,6a,7,8,9,10,11-octahydro-4H-3,11a,12,14,15-pentaaza-7,10-methanocyclohepta[4,5]cycloocta[1,2,3-de]naphthalen-2-yl)naphthalen-2-ol]",0.06 nM,0.17 nM,0.5 nM
"C#Cc1c(F)ccc2cccc(-c3nc4c5c(nc(OC[C@@]67CCCN6C[C@H](F)C7)nc5c3F)N3C[C@H]5CC[C@H](N5)[C@H]3CCC4)c12 [Example 76, (6aR,7S,10R)-2-(8-ethynyl-7-fluoronaphthalen-1-yl)-1-fluoro-13-(((2R,7aS)-2-fluorotetrahydro-1H-pyrrolizin-7a(5H)-yl)methoxy)-5,6,6a,7,8,9,10,11-octahydro-4H-3,11a,12,14,15-pentaaza-7,10-methanocyclohepta[4,5]cycloocta[1,2,3-de]naphthalene]",0.1 nM,4 nM,27 nM
"C#Cc1c(F)ccc2cc(O)cc(-c3nc4c5c(nc(OCC6(CN7CCC[Si](C)(C)CC7)CC6)nc5c3F)N3C[C@H]5CC[C@H](N5)[C@H]3CC4)c12 [Example 78, 4-((5aR,6S,9R)-12-((1-((4,4-dimethyl-1,4-azasilepan-1-yl)methyl)cyclopropyl)methoxy)-1-fluoro-4,5,5a,6,7,8,9,10-octahydro-3,10a,11,13,14-pentaaza-6,9-methanonaphtho[1,8-ab]heptalen-2-yl)-5-ethynyl-6-fluoronaphthalen-2-ol]",0.2 nM,3.9 nM,15 nM
"C[C@H]1C[C@@H]2[C@@H]3CC[C@H](CN2c2nc(OC[C@@]45CCCN4C[C@H](F)C5)nc4c(F)c(-c5cc(O)cc6ccc(F)c(F)c56)nc1c24)N3 [Example 81, 5,6-difluoro-4-((4S,5aR,6S,9R)-1-fluoro-12-(((2R,7aS)-2-fluorotetrahydro-1H-pyrrolizin-7a(5H)-yl)methoxy)-4-methyl-4,5,5a,6,7,8,9,10-octahydro-3,10a,11,13,14-pentaaza-6,9-methanonaphtho[1,8-ab]heptalen-2-yl)naphthalen-2-ol]",0.2 nM,2.8 nM,18 nM
"C#Cc1c(F)ccc2cccc(-c3nc4c5c(nc(OC[C@@]67CCCN6C[C@H](F)C7)nc5c3F)N3C[C@H]5CC[C@H](N5)[C@@H]3[C@@H](C)[C@H]4C)c12 [Example 86, (4R,5S,5aS,6S,9R)-2-(8-ethynyl-7-fluoronaphthalen-1-yl)-1-fluoro-12-(((2R,7aS)-2-fluorotetrahydro-1H-pyrrolizin-7a(5H)-yl)methoxy)-4,5-dimethyl-4,5,5a,6,7,8,9,10-octahydro-3,10a,11,13,14-pentaaza-6,9-methanonaphtho[1,8-ab]heptalene]",0.5 nM,14.4 nM,64 nM
"C#Cc1c(F)ccc2cc(O)cc(-c3nc4c5c(nc(OC[C@@]67CCCN6C[C@H](F)C7)nc5c3F)N3C[C@H]5CC[C@H](N5)[C@@H]3[C@@H](C)[C@H]4C)c12 [Example 87, 5-ethynyl-6-fluoro-4-((4R,5S,5aS,6S,9R)-1-fluoro-12-(((2R,7aS)-2-fluorotetrahydro-1H-pyrrolizin-7a(5H)-yl)methoxy)-4,5-dimethyl-4,5,5a,6,7,8,9,10-octahydro-3,10a,11,13,14-pentaaza-6,9-methanonaphtho[1,8-ab]heptalen-2-yl)naphthalen-2-ol]",0.4 nM,0.2 nM,0.3 nM
